Where a name gives a salt, the structure may show the parent alone.
Experiments:
primary human T-cells = test: Cytotoxicity to T-cells in vitro; type: cell-based
[1] = tested on: etoposide-treated IMR-90 cells; test: Etoposide-induced senescence model, resazurin cell viability (screen and dose-response); type: cell-based, human; conditions: for Therapeutic Index (TI): etoposide-induced senescence model, ratio of IC50 values between etoposide- and DMSO-treated IMR-90 fibroblasts; for senolytic activity in screen: 3 days
How it was run: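 IMR-90 fibroblasts made senescent with 50 μM etoposide for 2 days, then 4 days recovery before plating. Compounds at 10 μM or 1 μM final (screen) or three-fold dilutions (1% DMSO) for 3 days, then 0.15 mM resazurin 1 day, fluorescence 550/590 nm. Viability expressed as fraction of untreated controls; biological duplicates.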

[2] = cited from earlier work
human red blood cells = test: Hemolysis assay; type: cell-based; conditions: concentrations ≥0.01% (w/w); positive control
Method: Hemolysis assay. Whole human blood containing EDTA (Innovative Resarch IWB1K2E) was centrifuged at 120×g at 4° C., for 5 min and resuspended in Dulbecco's PBS (DPBS: VWR 02-0119-0500). These washing steps were repeated until the supernatant was clear. Red blood cells were then resuspended in DPBS to 5×10^8 cells/mL, and 100 μL of cells was plated into each well of a 96-well clear round-bottom plate. Compounds were added to the indicated concentrations, and DMSO was used as a vehicle. Samples were incubated for 1 h at 37° C., without shaking, after which plates were centrifuged at 1500×g at room temperature for 5 min to pellet cells. 60 μL of the supernatant from each sample was then transferred to a 96-well clear flat-bottom plate, and the absorbance was read at 405 nm using a SpectraMax M3 plate reader to quantify the amount of soluble hemoglobin. Fractional hemolysis was determined by linearly interpolating absorbance values with respect to a positive control (saturation with 10% Triton X-100) and a negative control (1% DMSO vehicle). Results are depicted in FIG. 14.

| Compound | Therapeutic Index (TI) [1] | also measured |
| --- | --- | --- |
| CC1(C)CCC(CN2CCN(c3ccc(C(=O)NS(=O)(=O)c4ccc(NCC5CCOCC5)c([N+](=O)[O-])c4)c(Oc4cnc5[nH]ccc5c4)c3)CC2)=C(c2ccc(Cl)cc2)C1 [ABT-199] |  | T-cell death (primary human T-cells; at about 0.1 μM): substantial cell death; IC50 (primary human T-cells; primary human T-cells, read-out: T-cell cytotoxicity IC50): ~1000 nM |
| COc1ccc(Cl)cc1NC(=O)CSc1nc2ccc(NC(=O)c3ccc(C)cc3)cc2s1 [compound 131] | ++ (compounds with a TI of 1 to 5 were labelled as ++) |  |
| O=C(Nc1ccc2nc(SCC(=O)N3CCc4ccccc43)sc2c1)c1ccccc1Cl [compound 132] | ++ (compounds with a TI of 1 to 5 were labelled as ++) |  |
| CC(=O)Nc1ccc(NC(=O)CSc2nc3ccc(NC(=O)c4ccc(C)cc4)cc3s2)cc1 [compound 133] | ++ (compounds with a TI of 1 to 5 were labelled as ++) |  |
| CCc1ccc(NC(=O)CSc2nc3ccc(NC(=O)c4ccccc4)cc3s2)cc1 [compound 134] | ++ (compounds with a TI of 1 to 5 were labelled as ++) |  |
| CC(=O)Nc1ccc(NC(=O)CSc2nc3ccc(NC(=O)c4ccccc4)cc3s2)cc1 [compound 135] | ++ (compounds with a TI of 1 to 5 were labelled as ++) |  |
| Cc1cccc(NC(=O)CSc2nc3ccc(NC(=O)c4cccc(C)c4)cc3s2)c1 [compound 136] | ++ (compounds with a TI of 1 to 5 were labelled as ++) |  |
| O=C(CSc1nc2ccc(NC(=O)c3ccccc3)cc2s1)Nc1ccc(Br)cc1 [compound 137] | ++ (compounds with a TI of 1 to 5 were labelled as ++) |  |
| CC(=O)c1ccc(NC(=O)CSc2nc3ccc(NC(=O)c4cccc(C)c4)cc3s2)cc1 [compound 138] | ++ (compounds with a TI of 1 to 5 were labelled as ++) |  |
| Cc1cc(C)c(NC(=O)C(C)Sc2nc3ccc(NC(=O)c4ccccc4)cc3s2)c(C)c1 (stereo not drawn) [compound 139] | ++ (compounds with a TI of 1 to 5 were labelled as ++) |  |
| O=C(CSc1nc2ccc(NC(=O)c3ccccc3)cc2s1)Nc1ccc(F)cc1 [compound 140] | ++ (compounds with a TI of 1 to 5 were labelled as ++) |  |
| Cc1ccc(NC(=O)CSc2nc3ccc(NC(=O)c4ccccc4C)cc3s2)cc1 [compound 141] | ++ (compounds with a TI of 1 to 5 were labelled as ++) |  |
| O=C(CSc1nc2ccc(NC(=O)c3ccccc3)cc2s1)Nc1ccccc1 [compound 142] | + (Compounds with a TI of <1 were labelled as +) |  |
| Cc1ccc(NC(=O)CSc2nc3ccc(NC(=O)c4ccccc4F)cc3s2)cc1Cl [compound 143] | + (Compounds with a TI of <1 were labelled as +) |  |
| Cc1cc(C)c(NC(=O)C(C)Sc2nc3ccc(NC(=O)c4ccccc4C)cc3s2)c(C)c1 (stereo not drawn) [compound 144] | + (Compounds with a TI of <1 were labelled as +) |  |
| Cc1ccc(NC(=O)CSc2nc3ccc(NC(=O)c4ccc(C)cc4)cc3s2)cc1 [compound 145] | + (Compounds with a TI of <1 were labelled as +) |  |
| CN(C(=O)CSc1nc2ccc(NC(=O)c3ccccc3)cc2s1)c1ccccc1 [compound 146] | + (Compounds with a TI of <1 were labelled as +) |  |
| COc1ccccc1C(=O)Nc1ccc2nc(SCC(=O)Nc3cc(C)cc(C)c3)sc2c1 [compound 147] | + (Compounds with a TI of <1 were labelled as +) |  |
| CCCCOc1ccc(NC(=O)CSc2nc3ccc(NC(=O)c4ccccc4Cl)cc3s2)cc1 [compound 148] | + (Compounds with a TI of <1 were labelled as +) |  |
| CCCCCCCCCCOc1ccc(C(=O)Nc2ccc3nc(SCC(=O)Nc4ccccc4)sc3c2)cc1 [compound 149] | + (Compounds with a TI of <1 were labelled as +) |  |
| Cc1cccc(NC(=O)CSc2nc3ccc(NC(=O)c4ccccc4)cc3s2)c1C [compound 150] | + (Compounds with a TI of <1 were labelled as +) |  |
| Cc1ccccc1C(=O)Nc1ccc2nc(SCC(=O)Nc3ccc(C(C)C)cc3)sc2c1 [compound 151] | + (Compounds with a TI of <1 were labelled as +) |  |
| Cc1ccccc1NC(=O)CSc1nc2ccc(NC(=O)c3ccccc3C)cc2s1 [compound 152] | + (Compounds with a TI of <1 were labelled as +) |  |
| COc1cccc(NC(=O)CSc2nc3ccc(NC(=O)c4ccccc4)cc3s2)c1 [compound 153] | + (Compounds with a TI of <1 were labelled as +) |  |
| CC(=O)c1ccc(NC(=O)CSc2nc3ccc(NC(=O)c4ccc(C)cc4)cc3s2)cc1 [compound 154] | + (Compounds with a TI of <1 were labelled as +) |  |

| Compound | Therapeutic Index (TI) [1] | also measured |
| --- | --- | --- |
| COc1ccccc1C(=O)Nc1ccc2nc(SCC(=O)Nc3ccc(C(C)C)cc3)sc2c1 [compound 155] | + (Compounds with a TI of <1 were labelled as +) |  |
| COc1ccc(C(=O)Nc2ccc3nc(SCC(=O)N(C)c4ccccc4)sc3c2)cc1 [compound 156] | + (Compounds with a TI of <1 were labelled as +) |  |
| CC(=O)c1ccc(NC(=O)CSc2nc3ccc(NC(=O)c4ccccc4)cc3s2)cc1 [compound 157] | + (Compounds with a TI of <1 were labelled as +) |  |
| COc1cccc(NC(=O)CSc2nc3ccc(NC(=O)c4ccccc4C)cc3s2)c1 [compound 158] | + (Compounds with a TI of <1 were labelled as +) |  |
| Cc1cccc(NC(=O)CSc2nc3ccc(NC(=O)c4ccccc4C)cc3s2)c1 [compound 159] | + (Compounds with a TI of <1 were labelled as +) |  |
| COc1ccccc1C(=O)Nc1ccc2nc(SCC(=O)Nc3cc(Cl)ccc3C)sc2c1 [compound 160] | + (Compounds with a TI of <1 were labelled as +) |  |
| COc1ccc(CNC(=O)CSc2nc3ccc(NC(=O)c4ccccc4C)cc3s2)cc1 [compound 161] | + (Compounds with a TI of <1 were labelled as +) |  |
| COc1ccc(C(=O)Nc2ccc3nc(SCC(=O)N4CCOCC4)sc3c2)cc1OC [compound 162] | + (Compounds with a TI of <1 were labelled as +) |  |
| COc1ccccc1NC(=O)CSc1nc2ccc(NC(=O)c3ccccc3C)cc2s1 [compound 163] | + (Compounds with a TI of <1 were labelled as +) |  |
| CC(=O)c1ccc(NC(=O)CSc2nc3ccc(NC(=O)c4ccccc4C)cc3s2)cc1 [compound 164] | + (Compounds with a TI of <1 were labelled as +) |  |
| COc1cccc(C(=O)Nc2ccc3nc(SCC(=O)Nc4ccccc4C)sc3c2)c1 [compound 165] | + (Compounds with a TI of <1 were labelled as +) |  |
| CCOc1ccc(NC(=O)CSc2nc3ccc(NC(=O)c4ccccc4)cc3s2)cc1 [compound 166] | + (Compounds with a TI of <1 were labelled as +) |  |
| COc1ccccc1NC(=O)CSc1nc2ccc(NC(=O)c3ccccc3)cc2s1 [compound 167] | + (Compounds with a TI of <1 were labelled as +) |  |
| COc1ccccc1C(=O)Nc1ccc2nc(SCC(=O)Nc3ccc(C)cc3C)sc2c1 [compound 168] | + (Compounds with a TI of <1 were labelled as +) |  |
| COC(=O)c1ccc(NC(=O)CSc2nc3ccc(NC(=O)c4ccc(C)cc4)cc3s2)cc1 [compound 169] | + (Compounds with a TI of <1 were labelled as +) |  |
| COc1ccccc1C(=O)Nc1ccc2nc(SCC(=O)Nc3ccccc3Cl)sc2c1 [compound 170] | + (Compounds with a TI of <1 were labelled as +) |  |
| O=C(CSc1nc2ccc(NC(=O)c3ccc(CO)c(F)c3)cc2s1)Nc1ccc(F)cc1 [compound 171] | +++ (compounds with a TI of >5 were labeled as +++) |  |
| COc1ccc(C(=O)Nc2ccc3nc(SCC(=O)Nc4ccccc4)sc3c2)c(F)c1 [compound 172] | +++ (compounds with a TI of >5 were labeled as +++) |  |
| CS(=O)(=O)c1ccc(C(=O)Nc2ccc3nc(SCC(=O)Nc4cccc(S(N)(=O)=O)c4)sc3c2)cc1F [compound 173] | ++ (compounds with a TI of 1 to 5 were labelled as ++) |  |
| CS(=O)(=O)c1cccc(C(=O)Nc2ccc3nc(SCC(=O)Nc4ccc(F)cc4)sc3c2)c1 [compound 174] | +++ (compounds with a TI of >5 were labeled as +++) |  |
| O=c1c(O)c(-c2ccc(O)c(O)c2)oc2cc(O)ccc12 [fisetin] |  | bioavailability [2]: limited bioavailability |
| CN(C)CCCN1c2ccccc2CCc2ccccc21 [imipramine hydrochloride, reference compound] |  | senolytic activity in screen ([1]; 1 μM): active |
| C[C@@H]1O[C@@H](O[C@H]2C[C@@H](O)[C@]3(CO)[C@H]4[C@H](O)C[C@]5(C)[C@@H](C6=CC(=O)OC6)CC[C@]5(O)[C@@H]4CC[C@]3(O)C2)[C@H](O)[C@H](O)[C@H]1O [ouabain, reference compound] |  | senolytic activity in screen ([1]; 10 μM, active: control viability >0.5, Snc/control ratio <0.7): active |
| Cc1noc(NS(=O)(=O)c2ccc(N)cc2)c1C [sulfisoxazole, reference compound] |  | senolytic activity in screen ([1]; 1 μM): active |
| Triton X-100 [reference compound] |  | hemolysis (human red blood cells): substantial hemolysis |
